Measured values reported in PMC9792171, “Design and synthesis of new thiazolidinone/uracil derivatives as antiproliferative agents targeting EGFR and/or BRAF^V600E” (Frontiers in Chemistry, 2022).

How the values were obtained:
[1] = Cell viability assay (MTT), MCF-10A; type: cell-based; conditions: human, MCF-10A mammary gland epithelial cells, MCF-10A cells, incubated 4 days
Experimental: To test the viability of new compounds, the human mammary gland epithelial (MCF-10A) cell line was used ([Youssif et al., 2019]; [Mahmoud et al., 2022]). MCF-10A cells were incubated with compounds 3a-f and 5a-l for 4 days before being tested for viability using the MTT assay.
MTT assay was carried out to study the effect of compounds on mammary epithelial cells (MCF-10A) (Youssif, B. G. M. et al., 2019; Mahmoud, M. A., et al., 2022). The medium in which cells were propagated contained Dulbecco's modified Eagle's medium (DMEM)/ Ham's F-12 medium (1:1) supplemented with epidermal growth factor (20 ng/mL), hydrocortisone (500 ng/mL), insulin (10 μg/mL), 2 mM glutamine and 10% foetal calf serum. After every 2-3 days, the cells were passaged using trypsin ethylenediamine tetra acetic acid (EDTA). The cells were seeded at a density of 10^4 cells mL^-1 in flat-bottomed culture plates containing 96 wells each. After 24 h, medium was removed from the plates and the compounds in (in 0.1% DMSO) were added (in 200 μL medium to yield a final concentration of 0.1% v/v) to the wells of plates. A single compound was designated with four wells followed by incubation of plates for 96h at 37°C. After incubation, medium was removed completely from the plates followed by addition of MTT (0.4 mg/mL in medium) to each well and subsequent incubation of plates for 3h. MTT (along with the medium) was removed and DMSO (150μL) was added to each well of the culture plates, followed by vortexing and subsequent measurement of absorbance (at 540 nm) using microplate reader. The data are shown as percentage inhibition of proliferation in comparison with controls containing 0.1% DMSO.

[2] = system: A-549 (epithelial cancer cell line); experiment: Antiproliferative MTT assay, A-549; type: cell-based; conditions: Homo sapiens, A549; A-549, MTT; read-out: Antiproliferative activity IC50 ± SEM (nM) A-549
Experimental: (§1) Using the MTT assay ([Abdelrahman et al., 2017]; [El-Sherief et al., 2018]) and doxorubicin as the reference drug, 3a-f and 5a-l were tested for antiproliferative activity against four human cancer cell lines: Panc-1 (pancreas cancer cell line), MCF-7 (breast cancer cell line), HT-29 (colon cancer cell line), and A-549 (epithelial cancer cell line).
(§2) To explore the antiproliferative potential of compounds MTT assay was performed according to previously reported procedure (El-Sherief, H.A.M., et al., 2018; Abdelrahman, M. H., et al., 2017) using different cell lines to explore the antiproliferative potential of compounds propidium iodide fluorescence assay was performed using different cell lines. To calculate the total nuclear DNA, a fluorescent dye (propidium iodide, PI) is used which can attach to the DNA, thus offering a quick and precise technique. PI cannot pass through the cell membrane and its signal intensity can be considered as directly proportional to quantity of cellular DNA. Cells whose cell membranes are damaged or have changed permeability are counted as dead ones. The assay was performed by seeding the cells of different cell lines at a density of 3000-7500 cells/well (in 200µl medium) in culture plates followed by incubation for 24h at 37 °C in humidified 5% CO2/95% air atmospheric conditions. The medium was removed; the compounds were added to the plates at 10 µM concentrations (in 0.1% DMSO) in triplicates, followed by incubation for 48 h. DMSO (0.1%) was used as control. After incubation, medium was removed followed by the addition of PI (25 µl, 50µg/mL in water/medium) to each well of the plates. At -80 °C, the plates were allowed to freeze for 24 h, followed by thawing at 25 °C. A fluorometer (Polar-Star BMG Tech) was used to record the readings at excitation and emission wavelengths of 530 and 620 nm for each well. The percentage cytotoxicity of compounds was calculated using the following formula: […]

[3] = system: MCF-7 (breast cancer cell line); experiment: Antiproliferative MTT assay, MCF-7; type: cell-based; conditions: Homo sapiens, MCF7; MCF-7, MTT; read-out: Antiproliferative activity IC50 ± SEM (nM) MCF-7
Experimental: as §1, §2

[4] = system: Panc-1 (pancreas cancer cell line); experiment: Antiproliferative MTT assay, Panc-1; type: cell-based; conditions: Homo sapiens; Panc-1, MTT; read-out: Antiproliferative activity IC50 ± SEM (nM) Panc-1
Experimental: as §1, §2

[5] = system: HT-29 (colon cancer cell line); experiment: Antiproliferative MTT assay, HT-29; type: cell-based; conditions: Homo sapiens; HT-29, MTT; read-out: Antiproliferative activity IC50 ± SEM (nM) HT-29
Experimental: as §1, §2

[6] = system: four human cancer cell lines (A-549, MCF-7, Panc-1, HT-29); experiment: Antiproliferative MTT assay, average of four cancer cell lines (GI50); type: cell-based; conditions: for IC50: Homo sapiens, average of A-549, MCF-7, Panc-1, HT-29
Experimental: as §1, with “line). […]” for “line).”
as §2

[7] = system: lung cancer (A549) cell line; set-up: method as in Aziz et al., 2021; conditions: ref Aziz et al., 2021; read-out: IC50 against lung cancer (A549) cell line; cited from earlier work
EGFR = target: T1, EGFR (Homo sapiens, UniProt P00533); set-up: method as in Aziz et al., 2021; conditions: ref Aziz et al., 2021; cited from earlier work
T1 construct: EGFR cytoplasmic domain (EGFR-CD, amino acids 645–1186); His6 (N); made in house; host or cells: Sf-9 insect cells (baculovirus; pBlueBacHis2B and pFASTBacHTc)

[8] = system: human lung carcinoma cell lines; set-up: method as in Xiong et al., 2008; conditions: panel of human lung carcinoma cell lines; ref Xiong et al., 2008; read-out: IC50, inhibition of cell proliferation; cited from earlier work

T1 sequence (P00533 669-1210): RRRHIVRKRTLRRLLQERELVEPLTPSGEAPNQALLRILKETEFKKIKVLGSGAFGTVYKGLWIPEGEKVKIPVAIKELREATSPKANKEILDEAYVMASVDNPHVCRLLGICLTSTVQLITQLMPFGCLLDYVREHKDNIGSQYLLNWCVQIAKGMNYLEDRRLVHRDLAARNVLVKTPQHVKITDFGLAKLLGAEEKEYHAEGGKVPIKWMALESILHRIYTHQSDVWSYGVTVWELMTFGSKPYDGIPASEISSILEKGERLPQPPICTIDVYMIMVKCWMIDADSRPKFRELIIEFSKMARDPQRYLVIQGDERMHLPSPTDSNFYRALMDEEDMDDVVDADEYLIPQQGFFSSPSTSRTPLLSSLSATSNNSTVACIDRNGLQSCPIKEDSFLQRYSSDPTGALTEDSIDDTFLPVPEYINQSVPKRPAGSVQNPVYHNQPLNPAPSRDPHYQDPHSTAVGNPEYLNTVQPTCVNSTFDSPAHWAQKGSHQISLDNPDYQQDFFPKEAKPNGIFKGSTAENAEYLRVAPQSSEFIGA

Row | IC50 [2] [nM] | IC50 [3] [nM] | IC50 [4] [nM] | IC50 [5] [nM] | IC50 [6] [nM] | melting point | fold less potent than compound 5j (GI50) ([6]; ratio of GI50 values) | SMILES | viability at 4 days, 50 µM [1] [%] | IC50 [7] [µM] | IC50 (EGFR) [µM] | IC50 [8] [µM]
1 | 8900 ± 800 | 8500 ± 800 | 8800 ± 800 | 9100 ± 800 | 8800 | 340 to 342 °C |  | O=c1[nH]cc(NC(=S)Nc2ccccc2)c(=O)[nH]1 [Compound 3a, 1-(2,4-Dioxo-1,2,3,4-tetrahydropyrimidin-5-yl)-3-phenylthiourea] | 86 |  |  | 
2 | 3700 ± 300 | 3600 ± 300 | 4100 ± 300 | 3900 ± 300 | 3800 | 338 to 340 °C |  | Cc1ccc(NC(=S)Nc2c[nH]c(=O)[nH]c2=O)cc1 [Compound 3b, 1-(2,4-Dioxo-1,2,3,4-tetrahydropyrimidin-5-yl)-3-(p-tolyl)thiourea] | 87 |  |  | 
3 | 4100 ± 400 | 3900 ± 400 | 4300 ± 400 | 4300 ± 400 | 4150 | 350 to 352 °C (dec.) |  | O=c1[nH]cc(NC(=S)NCc2ccccc2)c(=O)[nH]1 [Compound 3d, 1-Benzyl-3-(2,4-dioxo-1,2,3,4-tetrahydropyrimidin-5-yl)thiourea] | 91 |  |  | 
4 | 9700 ± 800 | 9600 ± 800 | 9800 ± 800 | 10800 ± 900 | 10000 | 332 to 334 °C |  | CNC(=S)Nc1c[nH]c(=O)[nH]c1=O [Compound 3e, 1-(2,4-Dioxo-1,2,3,4-tetrahydropyrimidin-5-yl)-3-methylthiourea] | 89 |  |  | 
5 | 3800 ± 300 | 3700 ± 300 | 3900 ± 300 | 4100 ± 300 | 3900 | 348 to 350 °C (dec.) |  | C=CCNC(=S)Nc1c[nH]c(=O)[nH]c1=O [Compound 3f, 1-Allyl-3-(2,4-dioxo-1,2,3,4-tetrahydropyrimidin-5-yl)thiourea] | 89 |  |  | 
6 | 3500 ± 300 | 3100 ± 300 | 3300 ± 300 | 3900 ± 300 | 3450 | 320 to 322 °C |  | CCOC(=O)/C=C1\S/C(=N\c2c[nH]c(=O)[nH]c2=O)N(c2ccccc2)C1=O [Compound 5a, (Z)-Ethyl-2-((Z)-2-((2,4-dioxo-1,2,3,4-tetrahydropyrimidin-5-yl)imino)-4-oxo-3-phenyl-thiazolidin-5-ylidene)acetate] | 91 |  |  | 
7 | 4900 ± 500 | 4700 ± 400 | 5500 ± 500 | 5500 ± 500 | 5150 |  | approximately 5 fold | CCOC(=O)/C=C1\S/C(=N\c2c[nH]c(=O)[nH]c2=O)N(Cc2ccccc2)C1=O [Compound 5d, (Z)-Ethyl-2-((Z)-3-benzyl-2-((2,4-dioxo-1,2,3,4-tetrahydropyrimidin-5-yl)imino)-4-oxo-thiazolidin-5-ylidene)acetate] | 86 |  |  | 
8 | 7200 ± 600 | 6700 ± 700 | 7300 ± 700 | 7200 ± 700 | 7100 | 302 to 304 °C |  | CCOC(=O)/C=C1\S/C(=N\c2c[nH]c(=O)[nH]c2=O)N(C)C1=O [Compound 5e, (Z)-Ethyl-2-((Z)-2-((2,4-dioxo-1,2,3,4-tetrahydropyrimidin-5-yl)imino)-3-methyl-4-oxo-thiazolidin-5-ylidene)acetate] | 86 |  |  | 
9 | 8200 ± 700 | 7900 ± 700 | 8800 ± 700 | 8900 ± 700 | 8500 | 310 to 312 °C |  | C=CCN1C(=O)/C(=C/C(=O)OCC)S/C1=N\c1c[nH]c(=O)[nH]c1=O [Compound 5f, (Z)-Ethyl-2-((Z)-3-allyl-2-((2,4-dioxo-1,2,3,4-tetrahydropyrimidin-5-yl)imino)-4-oxo-thiazolidin-5-ylidene)acetate] | 89 |  |  | 
10 | 2700 ± 200 | 2200 ± 200 | 2900 ± 200 | 2200 ± 200 | 2500 | 302 to 304 °C |  | COC(=O)/C=C1\S/C(=N\c2c[nH]c(=O)[nH]c2=O)N(c2ccccc2)C1=O [Compound 5g, (Z)-Methyl-2-((Z)-2-((2,4-dioxo-1,2,3,4-tetrahydropyrimidin-5-yl)imino)-4-oxo-3-phenyl-thiazolidin-5-ylidene)acetate] | 87 |  |  | 
11 | 5700 ± 600 | 5100 ± 500 | 5900 ± 500 | 6200 ± 600 | 5700 | 300 to 302 °C |  | COC(=O)/C=C1\S/C(=N\c2c[nH]c(=O)[nH]c2=O)N(C)C1=O [Compound 5k, (Z)-Methyl-2-((Z)-2-((2,4-dioxo-1,2,3,4-tetrahydropyrimidin-5-yl)imino)-3-methyl-4-oxothiazolidin-5-ylidene)acetate] | 89 |  |  | 
12 | 6000 ± 600 | 6500 ± 600 | 6400 ± 600 | 6600 ± 600 | 6400 | 314 to 316 °C |  | C=CCN1C(=O)/C(=C/C(=O)OC)S/C1=N\c1c[nH]c(=O)[nH]c1=O [Compound 5l, (Z)-Methyl-2-((Z)-3-allyl-2-((2,4-dioxo-1,2,3,4-tetrahydropyrimidin-5-yl)imino)-4-oxothiazolidin-5-ylidene)acetate] | 86 |  |  | 
13 |  |  |  |  |  |  |  | O=C1N=C(Nn2c(-c3ccccc3)nc3ccccc3c2=O)S/C1=C/c1ccccc1 [Compound III] |  | 0.72 | 0.065 | 
14 |  |  |  |  |  |  |  | COC(=O)c1ccccc1NC(=S)N(CCN1CCCCC1)Cc1cc2cc(C)ccc2[nH]c1=O [DC27] |  |  |  | 2.5 to 12.9
15 | 1200 ± 100 | 900 ± 100 | 1400 ± 100 | 1000 ± 100 | 1100 |  |  | COc1cccc2c1C(=O)c1c(O)c3c(c(O)c1C2=O)C[C@@](O)(C(=O)CO)C[C@@H]3O[C@H]1C[C@H](N)[C@H](O)[C@H](C)O1 [Doxorubicin, reference compound] |  |  |  | 
